Test results reported in patent publication EP1707568A2, “A pharmaceutical composition for use in the treatment of ovarian cancer in a human afflicted therewith” (SMITHKLINE BEECHAM CORPORATION, priority 1991, dated 1992).
Like-named read-outs stand apart in the source and are kept apart here.

Key:
[1] = test system: ovarian cancer; test: Clinical treatment of a platinum-refractory ovarian cancer patient, tumor size evaluated by CAT scan; assay type: in vivo; conditions: one human patient, intravenous 1.5 mg/m^2 per day for five consecutive days
Description: One human patient with ovarian cancer, who was refractory to two previous platinum-containing regimens (i.e., cisplatin-cyclophosphamide combination regimen and treatment with single agent carboplatin), received a course of therapy comprising intravenous administration of 1.5 mg of topotecan/m^2 of body surface area per day for five consecutive days. This course of therapy was repeated […] nine more times to date at twenty-one day intervals (from the date of initiation of therapy) for a total of ten treatments. Tumor size regression was evaluated by CAT (computerized axial tomography) scan. […] At least until the tenth treatment, this clinically significant response was sustained, i.e., a greater than fifty percent (50%) tumor size regression was obtained.

[2] = Hang-bag stability of topotecan diluted in saline or dextrose; assay type: physicochemical; conditions: read-out: recovery
Description: Topotecan diluted in saline (10 ug/ml or 500 ug/ml) or dextrose (6.7 ug/ml or 330 ug/ml) is stable in a hang-bag for 24 hours with at least 95% recovery.

[3] = Stability of reconstituted topotecan solution further diluted in D5W or NS in plastic bags at room temperature; assay type: physicochemical; conditions: for Percentage of Initial Topotecan Remaining in Solution: 0 hrs; for remaining at 6 h / remaining at 24 h / remaining at 48 h: read-out: Percentage of Initial Topotecan Remaining in Solution
Description: Topotecan is currently undergoing Phase I clinical investigation. The following pharmaceutical information is being supplied to the clinicians: • How supplied - As a vial containing 5 mg (of the base) with 100 mg mannitol. The pH is adjusted to 3.0 with HCl/NaOH. Lyophilized powder is light yellow in color. Intact vials should be stored under refrigeration (2-8 degrees Centigrade). • Solution Preparation -When the 5 mg vial is reconstituted with 2 ml of Sterile Water for Injection, USP, each ml will contain 2.5 mg of topotecan as the base and 50 mg of mannitol, USP. Topotecan must not be diluted or mixed with buffered solutions because of solubility and stability considerations. • Stability - Shelf life surveillance of the intact vials is ongoing. Because the single-use lyophilized dosage form contains no antibacterial preservatives, it is advised that the reconstituted solution be discarded eight hours after initial entry into the vial. Futher dilutions of the reconstituted solution to concentrations of 0.02 mg/ml and 0.1 mg/ml in 5% Dextrose Injection, USP, ("D5W") or 0.9% Sodium Chloride Injection, USP, ("NS") in plastic bags stored at room temperature yielded the following stability results:
Percentage of Initial Topotecan Remaining in Solution

With `CC[C@@]1(O)C(=O)OCc2c1cc1n(c2=O)Cc2cc3c(CN(C)C)c(O)ccc3nc2-1` [Topotecan, (S)-9-dimethylaminomethyl-10-hydroxycamptothecin] the Tumor size regression ([1]; following four courses) was “An even greater response was observed”, the Tumor size regression ([1]; following two courses of therapy) was “Tumor size regression was observed” and the Tumor size regression ([1]; sustained at least until the tenth treatment) was greater than 50%. The remaining at 24 h ([2]; dextrose, 6.7 ug/ml) was no less than 95%, the remaining at 24 h ([2]; saline, 10 ug/ml) was no less than 95% and the “Percentage of Initial Topotecan Remaining in Solution” value ([3]; D5W, 0.02 mg/ml) was 100.00%. The “Percentage of Initial Topotecan Remaining in Solution” value ([3]; D5W, 0.1 mg/ml) was 100.00%, the “Percentage of Initial Topotecan Remaining in Solution” value ([3]; NS, 0.02 mg/ml) was 100.00% and the “Percentage of Initial Topotecan Remaining in Solution” value ([3]; NS, 0.1 mg/ml) was 100.00%. For the same compound, the remaining at 6 h ([3]; d5w, 0.02 mg/ml) was 99.3%, the remaining at 6 h ([3]; d5w, 0.1 mg/ml) was 99.7% and the remaining at 24 h ([3]; d5w, 0.02 mg/ml) was 102%. For the same compound, the remaining at 24 h ([3]; d5w, 0.1 mg/ml) was 98.2%, the remaining at 48 h ([3]; d5w, 0.02 mg/ml) was 102% and the remaining at 48 h ([3]; d5w, 0.1 mg/ml) was 97.9%. It also gave a remaining at 6 h ([3]; ns, 0.02 mg/ml) of 98.6%, a remaining at 6 h ([3]; ns, 0.1 mg/ml) of 97.7% and a remaining at 24 h ([3]; ns, 0.02 mg/ml) of 96%. The remaining at 24 h ([3]; ns, 0.1 mg/ml) was 98.3%, the remaining at 48 h ([3]; ns, 0.02 mg/ml) was 102% and the remaining at 48 h ([3]; ns, 0.1 mg/ml) was 98.3%.
